Consider four compounds from US20230210999A1, “TARGETED PROTEASE DEGRADATION (TED) PLATFORM” (EUBULUS BIOTHERAPEUTICS INC., priority 2020, published 2023).

The test system of the first experiment is NCIH82 cells. The experiment is described as follows: Cell proliferation experiment, NCI-H82. It counts as cell-based, human. As to conditions: Homo sapiens, NCI-H82, 72 h, NCIH82 cells, 72 h; read-out: Inhibitory activity IC50 of tested compounds on NCIH82 cells. In outline: (§1)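 Alamar blue fluorescence after 72 h of compound exposure; IC50 from 4-parameter fit (Min, Max, Slope). Cells passaged ≥2 times, log-phase, 96-well, duplicate wells, 5-fold serial dilutions.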
Regarding `CC[C@@H]1C(=O)N(C)c2cnc(Nc3ccc(C(=O)NCCCOCCCOCCNCCC#Cc4cccc5c4CN(C4CCC(=O)NC4=O)C5=O)cc3OC)nc2N1C1CCCC1` (stereo partly drawn) [Compound 892], the IC50 was at most 1000 nM.
Same read-out and setting: for `CC[C@@H]1C(=O)N(C)c2cnc(Nc3ccc(C(=O)NCCCOCCNCCOCCC#Cc4cccc5c4CN(C4CCC(=O)NC4=O)C5=O)cc3OC)nc2N1C1CCCC1` (stereo partly drawn) [Compound 893] the value was at most 1000 nM.
On the same count and under the same terms, for `CC[C@@H]1C(=O)N(C)c2cnc(Nc3ccc(C(=O)NC4CCN(CCCOCCNCCC#Cc5cccc6c5CN(C5CCC(=O)NC5=O)C6=O)CC4)cc3OC)nc2N1C1CCCC1` (stereo partly drawn) [Compound 895] the value was at most 1000 nM.
Same read-out and setting: for `CC[C@@H]1C(=O)N(C)c2cnc(Nc3ccc(C(=O)NC4CCN(CCCOCCN(C)CCC#Cc5cccc6c5CN(C5CCC(=O)NC5=O)C6=O)CC4)cc3OC)nc2N1C1CCCC1` (stereo partly drawn) [Compound 897] the value was at most 1000 nM.

For a further experiment, the system named is Daudi cells. The experiment is described as follows: Cell proliferation experiment, Daudi. It counts as cell-based, human. As to conditions: Homo sapiens, Daudi, 72 h, Daudi cells, 72 h; read-out: Inhibitory activity IC50 of tested compounds on Daudi cells. The method, boiled down:
as §1
`CC[C@@H]1C(=O)N(C)c2cnc(Nc3ccc(C(=O)NCCCOCCCOCCNCCC#Cc4cccc5c4CN(C4CCC(=O)NC4=O)C5=O)cc3OC)nc2N1C1CCCC1` (stereo partly drawn) [Compound 892]: the IC50 fell in the range of 100 to 1000 nM.
On the same count and under the same terms, for `CC[C@@H]1C(=O)N(C)c2cnc(Nc3ccc(C(=O)NCCCOCCNCCOCCC#Cc4cccc5c4CN(C4CCC(=O)NC4=O)C5=O)cc3OC)nc2N1C1CCCC1` (stereo partly drawn) [Compound 893] the value was at most 100 nM; for `CC[C@@H]1C(=O)N(C)c2cnc(Nc3ccc(C(=O)NC4CCN(CCCOCCNCCC#Cc5cccc6c5CN(C5CCC(=O)NC5=O)C6=O)CC4)cc3OC)nc2N1C1CCCC1` (stereo partly drawn) [Compound 895], 100 to 1000 nM.
Still for that read-out and setting: for `CC[C@@H]1C(=O)N(C)c2cnc(Nc3ccc(C(=O)NC4CCN(CCCOCCN(C)CCC#Cc5cccc6c5CN(C5CCC(=O)NC5=O)C6=O)CC4)cc3OC)nc2N1C1CCCC1` (stereo partly drawn) [Compound 897] the value was 100 to 1000 nM.

A further experiment deals with HT-29 cells. The experiment is described as follows: Cell proliferation experiment, HT-29. It is filed as cell-based. As to conditions: Homo sapiens; HT-29 cells, 72 h; read-out: Inhibitory activity IC50 of tested compounds on HT-29 cells. The method, boiled down:
as §1
Turning to `CC[C@@H]1C(=O)N(C)c2cnc(Nc3ccc(C(=O)NCCCOCCCOCCNCCC#Cc4cccc5c4CN(C4CCC(=O)NC4=O)C5=O)cc3OC)nc2N1C1CCCC1` (stereo partly drawn) [Compound 892], the IC50 lay in the range of 300 to 1000 nM.
Same read-out and setting: for `CC[C@@H]1C(=O)N(C)c2cnc(Nc3ccc(C(=O)NCCCOCCNCCOCCC#Cc4cccc5c4CN(C4CCC(=O)NC4=O)C5=O)cc3OC)nc2N1C1CCCC1` (stereo partly drawn) [Compound 893] the value was at most 300 nM; for `CC[C@@H]1C(=O)N(C)c2cnc(Nc3ccc(C(=O)NC4CCN(CCCOCCNCCC#Cc5cccc6c5CN(C5CCC(=O)NC5=O)C6=O)CC4)cc3OC)nc2N1C1CCCC1` (stereo partly drawn) [Compound 895], 300 to 1000 nM.
Turning to `CC[C@@H]1C(=O)N(C)c2cnc(Nc3ccc(C(=O)NC4CCN(CCCOCCN(C)CCC#Cc5cccc6c5CN(C5CCC(=O)NC5=O)C6=O)CC4)cc3OC)nc2N1C1CCCC1` (stereo partly drawn) [Compound 897], the IC50 is at most 300 nM.

The test system of another experiment is MDA-MB-231 cells. In words: Cell proliferation experiment, MDA-MB-231. To be noted: Homo sapiens, MDA-MB-231, 72 h, MDA-MB-231 cells, 72 h; read-out: Inhibitory activity IC50 of tested compounds on MDA-MB-231 cells. It counts as cell-based, human. The method, boiled down:
as §1
On to `CC[C@@H]1C(=O)N(C)c2cnc(Nc3ccc(C(=O)NCCCOCCCOCCNCCC#Cc4cccc5c4CN(C4CCC(=O)NC4=O)C5=O)cc3OC)nc2N1C1CCCC1` (stereo partly drawn) [Compound 892], for which the IC50 is at most 500 nM.
Still for that read-out and setting: for `CC[C@@H]1C(=O)N(C)c2cnc(Nc3ccc(C(=O)NCCCOCCNCCOCCC#Cc4cccc5c4CN(C4CCC(=O)NC4=O)C5=O)cc3OC)nc2N1C1CCCC1` (stereo partly drawn) [Compound 893] the value was at most 500 nM.

A further experiment deals with Hela cells. The experiment is described as follows: Cell proliferation experiment, Hela. It counts as cell-based. As to conditions: Homo sapiens, 72 h, read-out: Inhibitory activity IC50 of tested compounds on Hela cells. The procedure: (§2) Reagents: RPMI-1640 medium, McCoy's 5A medium, IMDM medium, MEM medium, L-15 medium, fetal bovine serum. Penicillin-Streptomycin double antibody, trypsin, etc., 2-mercaptoethanol, NEAA, pyruvate, etc.
(§3) The cells were cultured in conventional ways, and the cells should be passed at least 2 generations before plating. Cells at the logarithmic growth phase were collected, prepared into single cell suspensions and counted. The concentration of cells was adjusted to the desired concentration, and cells were inoculated into a 96-well cell culture plate at 100 μl per well. 100 μL of complete medium of the test compound were added to each well, set up 2 duplicate wells for each concentration, and diluted with a 5-fold gradient, and continued to culture for 72 h. All cells were subjected to IC50 test for corresponding samples. The experimental results are shown in Test Example 4.
(§4) The fluorescence intensity of each well was detected using the Alarm blue method, and IC50 was calculated.
(§5) IC50 was calculated according to the following formula:
(§6) Y=Max+(Min−Max)/[1+(X/IC50)×Slope]
(§7) wherein Min, Max and Slope represent the minimum, maximum and slope respectively.
In the case of `CC[C@@H]1C(=O)N(C)c2cnc(Nc3ccc(C(=O)NCCCOCCCOCCNCCC#Cc4cccc5c4CN(C4CCC(=O)NC4=O)C5=O)cc3OC)nc2N1C1CCCC1` (stereo partly drawn) [Compound 892], the IC50 is at most 1000 nM.
Still for that read-out and setting: for `CC[C@@H]1C(=O)N(C)c2cnc(Nc3ccc(C(=O)NCCCOCCNCCOCCC#Cc4cccc5c4CN(C4CCC(=O)NC4=O)C5=O)cc3OC)nc2N1C1CCCC1` (stereo partly drawn) [Compound 893] the value was at most 1000 nM.

A further experiment concerns U-87MG cells. The experiment is described as follows: Cell proliferation experiment, U-87MG. It counts as cell-based. As to conditions: Homo sapiens; U-87MG cells, 72 h; read-out: Inhibitory activity IC50 of tested compounds on U-87MG cells. The method, boiled down:
as §1
As for `CC[C@@H]1C(=O)N(C)c2cnc(Nc3ccc(C(=O)NCCCOCCCOCCNCCC#Cc4cccc5c4CN(C4CCC(=O)NC4=O)C5=O)cc3OC)nc2N1C1CCCC1` (stereo partly drawn) [Compound 892], the IC50 was at most 100 nM.
Still for that read-out and setting: for `CC[C@@H]1C(=O)N(C)c2cnc(Nc3ccc(C(=O)NCCCOCCNCCOCCC#Cc4cccc5c4CN(C4CCC(=O)NC4=O)C5=O)cc3OC)nc2N1C1CCCC1` (stereo partly drawn) [Compound 893] the value was at most 100 nM; for `CC[C@@H]1C(=O)N(C)c2cnc(Nc3ccc(C(=O)NC4CCN(CCCOCCNCCC#Cc5cccc6c5CN(C5CCC(=O)NC5=O)C6=O)CC4)cc3OC)nc2N1C1CCCC1` (stereo partly drawn) [Compound 895], 100 to 500 nM.
Consider `CC[C@@H]1C(=O)N(C)c2cnc(Nc3ccc(C(=O)NC4CCN(CCCOCCN(C)CCC#Cc5cccc6c5CN(C5CCC(=O)NC5=O)C6=O)CC4)cc3OC)nc2N1C1CCCC1` (stereo partly drawn) [Compound 897], for which the IC50 was in the range of 100 to 500 nM.

For the next experiment, the system named is HUVEC cells. In words: Cell proliferation experiment, HUVEC. To be noted: Homo sapiens, 72 h, read-out: Inhibitory activity IC50 of tested compounds on HUVEC cells. It is filed as cell-based. On the procedure: as §2, §3, §4, §5, §6, §7
In the case of `CC[C@@H]1C(=O)N(C)c2cnc(Nc3ccc(C(=O)NCCCOCCCOCCNCCC#Cc4cccc5c4CN(C4CCC(=O)NC4=O)C5=O)cc3OC)nc2N1C1CCCC1` (stereo partly drawn) [Compound 892], the IC50 was at most 1000 nM.
Take `CC[C@@H]1C(=O)N(C)c2cnc(Nc3ccc(C(=O)NCCCOCCNCCOCCC#Cc4cccc5c4CN(C4CCC(=O)NC4=O)C5=O)cc3OC)nc2N1C1CCCC1` (stereo partly drawn) [Compound 893]: the half-maximal inhibitory concentration (IC50) was at most 1000 nM.

Another experiment deals with HL-60 cells. In words: Cell proliferation experiment, HL-60. As to conditions: Homo sapiens, 72 h, read-out: Inhibitory activity IC50 of tested compounds on HL-60 cells. It counts as cell-based. On the procedure:
as §2, §3, §4, §5, §6, §7
As for `CC[C@@H]1C(=O)N(C)c2cnc(Nc3ccc(C(=O)NCCCOCCCOCCNCCC#Cc4cccc5c4CN(C4CCC(=O)NC4=O)C5=O)cc3OC)nc2N1C1CCCC1` (stereo partly drawn) [Compound 892], the IC50 was at most 1000 nM.
`CC[C@@H]1C(=O)N(C)c2cnc(Nc3ccc(C(=O)NCCCOCCNCCOCCC#Cc4cccc5c4CN(C4CCC(=O)NC4=O)C5=O)cc3OC)nc2N1C1CCCC1` (stereo partly drawn) [Compound 893]: the IC50 was at most 1000 nM.
On to `CC[C@@H]1C(=O)N(C)c2cnc(Nc3ccc(C(=O)NC4CCN(CCCOCCNCCC#Cc5cccc6c5CN(C5CCC(=O)NC5=O)C6=O)CC4)cc3OC)nc2N1C1CCCC1` (stereo partly drawn) [Compound 895], for which the IC50 is at most 1000 nM.
Same read-out and setting: for `CC[C@@H]1C(=O)N(C)c2cnc(Nc3ccc(C(=O)NC4CCN(CCCOCCN(C)CCC#Cc5cccc6c5CN(C5CCC(=O)NC5=O)C6=O)CC4)cc3OC)nc2N1C1CCCC1` (stereo partly drawn) [Compound 897] the value was at most 1000 nM.

For another experiment, the system named is MV4;11 cells. In words: Cell proliferation experiment (Alamar blue, 72 h), MV4;11. It is filed as cell-based, human. As to conditions: Homo sapiens, MV4-11, 72 h, MV4;11 cells, 72 h; read-out: Inhibitory activity IC50 of tested compounds on MV4;11 cells. In outline: as §1
In the case of `CC[C@@H]1C(=O)N(C)c2cnc(Nc3ccc(C(=O)NCCCOCCCOCCNCCC#Cc4cccc5c4CN(C4CCC(=O)NC4=O)C5=O)cc3OC)nc2N1C1CCCC1` (stereo partly drawn) [Compound 892], the IC50 is at most 100 nM.
The same measure, in the same setting: for `CC[C@@H]1C(=O)N(C)c2cnc(Nc3ccc(C(=O)NCCCOCCNCCOCCC#Cc4cccc5c4CN(C4CCC(=O)NC4=O)C5=O)cc3OC)nc2N1C1CCCC1` (stereo partly drawn) [Compound 893] the value was at most 100 nM; for `CC[C@@H]1C(=O)N(C)c2cnc(Nc3ccc(C(=O)NC4CCN(CCCOCCNCCC#Cc5cccc6c5CN(C5CCC(=O)NC5=O)C6=O)CC4)cc3OC)nc2N1C1CCCC1` (stereo partly drawn) [Compound 895], at most 100 nM; for `CC[C@@H]1C(=O)N(C)c2cnc(Nc3ccc(C(=O)NC4CCN(CCCOCCN(C)CCC#Cc5cccc6c5CN(C5CCC(=O)NC5=O)C6=O)CC4)cc3OC)nc2N1C1CCCC1` (stereo partly drawn) [Compound 897], at most 100 nM.
